Patent publication US20220008425A1, “Pharmaceutical Composition for Treating B-Cell Lymphoma” (FUNDAN UNIVERSITY SHANGHAI CANER CENTER, priority 2018, published 2022)
“Also recorded” adds a separate entry of the source.

Key:
[1] = test system: NU-DUL-1-RCHO cells; conditions: 48 hours
[2] = test system: CD20 and mCRPs (CD46, CD55, CD59) in RCHO-resistant LY8 cells; assay: FACS analysis of membrane expression of CD46, CD55, CD59 and CD20; format: cell-based, human
Procedure: (§1) After being washed with PBS, cells were incubated with fluorescein-conjugated antibody for 30 minutes, followed by washing and resuspension of cells in PBS. Flow cytometry analysis was performed on a cytomics FC500 MPL instrument (Beckman Coulter, Inc., Brea, Calif.) and FlowJo software (Ashland, Inc., OR) was used for analysis. Cells were then sorted according to their relative fluorescence intensity by using a MoFlo XDP sorter (Beckman Coulter Inc., Brea, Calif.).

[3] = test system: CD20 and mCRPs (CD46, CD55, CD59) in RCHO-resistant NU-DUL-1 cells; assay: as above; format: cell-based, human
Procedure: as §1

[4] = test system: AKT phosphorylation, SOX2, FGFR1/2 and CSC-associated molecules in NU-DUL-1-RCHO cells; assay: Immunoblot analysis; format: cell-based, human
[5] = test system: LY8-RCHO cells; assay: EdU cell proliferation assay; format: cell-based, human; conditions: 1 μM
Procedure: (§2) RCHO-resistant DLBCL cells were pretreated with duvelisib, abemaciclib, or AZD4547 at a concentration of 1 μM for 48 or 120 hours prior to EdU assay. For 120 hours of the study, the medium was replaced with a fresh medium containing 1 μM of inhibitor at 48 hours. EdU cell proliferation assay was performed by using a cell-light EdU Apollo643 in vitro flow cytometry kit (RiboBio Inc., Guangzhou, China) according to its instructions. Next, we assayed EdU staining positive cells on a Cytomics FC500 MPL flow cytometer (Beckman Coulter, Brea, Calif.).

[6] = test system: NU-DUL-1-RCHO cells; assay: EdU cell proliferation assay; format: cell-based, human; conditions: 1 μM
Procedure: as §2

[7] = test system: LY8-RCHO-Luc cells; assay: Transplantation model, bioluminescence tumor growth and survival; format: in vivo; conditions: SCID mice bearing LY8-RCHO-Luc cells; for tumor growth (total photon flux): dosing per Table 1
From the text: (§3) Construction of a transplantation model: we transduced LY8-RCHO cells and NU-DUL-1-RCHO cells with lentiviruses overexpressing the firefly luciferase gene to generate stable cells expressing firefly luciferase, referred to as LY8-RCHO-Luc cells and NU-DUL-1-RCHO-Luc cells, respectively. 8-week-old female SCID mice were purchased from SLAC (Shanghai laboratory animal center). The LY8-RCHO-Luc cells and NU-DUL-1-RCHO-Luc cells were resuspended in PBS prior to intraperitoneal injection of 1.5×10^7 cells per mouse. After intraperitoneal injection of the LY8-RCHO-Luc cells, mice were randomized into 6 groups (7 mice in every group) and given saline, R-CHOP, duvelisib, abemaciclib, R-CHOP+duvelisib, and R-CHOP+abemaciclib, respectively. Mice inoculated with the NU-DUL-1-RCHO-Luc cells were randomly divided into 6 groups (7 mice in every group), and were given saline, R-CHOP, duvelisib, AZD4547, R-CHOP+duvelisib, and R-CHOP+AZD4547, respectively. The drug dosing method based on one course of clinical use is shown in Table 1; the R-CHOP regimen was clinically used to treat DLBCL, while duvelisib, abemaciclib, and AZD4547 were tested in clinical trials (associated NCT numbers are NCT02576275, NCT01739309, and […], respectively). Tumor growth was monitored by bioluminescence at day 50 and day 90 after inoculation. For in vivo luminescence imaging, D-luciferin (Promega, Madison, Wis.) was intraperitoneally injected into mice (150 mg/kg). After 10 minutes, the mice were anesthetized by intraperitoneal injection of pentobarbital (50 mg/kg) and then their bioluminescence intensity was examined by using an In Vivo MS FX PRO system (Bruker Corporation, Billerica, Mass.). Luminescence images were captured with an exposure time of 30 seconds and the signal intensity of the tumor was measured by using Bruker MI software. The survival time of each mouse was recorded. Surviving mice were euthanized and dissected 120 days after inoculation and no intraperitoneal tumors were found. Tumor tissue was collected from moribund mice and fixed with 4% formalin. All animal experiments were performed in strict accordance with the experiment protocol approved by the animal ethics committee of Shanghai school of medicine of Fudan university.

[8] = test system: NU-DUL-1-RCHO-Luc cells; assay: as above; format: in vivo; conditions: SCID mice bearing NU-DUL-1-RCHO-Luc cells
From the text: as §3

[9] = inhibitor combined with R-CHOP, experiment ended at day 120
[10] = regimen or inhibitor used alone, dosing per Table 1

C[C@H](Nc1ncnc2[nH]cnc12)c1cc2cccc(Cl)c2c(=O)n1-c1ccccc1 [duvelisib]
cytotoxicity (induction of cell death), inhibitor used alone ([1]; inhibitor alone at increasing concentrations): only slightly somewhat cytotoxic; also recorded: negligible effect on direct induction of cell death | reversal of resistance to CHO (cytotoxicity of CHO), inhibitor co-treated with CHO ([1]; inhibitor at increasing concentrations with CHO): significantly enhanced the cytotoxicity of CHO in the two RCHO-resistant cell lines in a dose-dependent manner; also recorded: significantly reversed resistance of RCHO-resistant cells to CHO | membrane expression of CD20 [2]: significantly reduced | membrane expression of the other three mCRPs (CD46, CD55, CD59) [2]: the other three mCRPs did not | membrane expression of CD20 [3]: significantly reduced | membrane expression of the other three mCRPs (CD46, CD55, CD59) [3]: the other three mCRPs did not | AKT phosphorylation and expression of SOX2 and FGFR1/2 [4]: reduces expression of SOX2 and FGFR1/2 by inhibiting AKT phosphorylation; also recorded: prevented phosphorylation of AKT and induced degradation of SOX2 | levels of CSC-associated molecules (OCT4, NANOG, KLF4, c-MYC, CD34, CD133) [4]: significantly reduced levels of CSC-associated molecules in the RCHO-resistant cells | cell proliferation (EdU incorporation) ([5]; 48 hours): strongly prevented proliferation of LY8-RCHO and NU-DUL-1-RCHO cells | cell proliferation (EdU incorporation) ([5]; 120 hours): significantly promoted proliferation of cells at 120 hours | cell proliferation (EdU incorporation) ([6]; 48 hours): strongly prevented proliferation of LY8-RCHO and NU-DUL-1-RCHO cells | cell proliferation (EdU incorporation) ([6]; 120 hours): significantly promoted proliferation of cells at 120 hours | tumor growth (total photon flux) ([7]; inhibitor combined with R-CHOP): significantly inhibited tumor growth; also recorded: completely inhibited tumor development | survival [7, 9]: prolonged the survival rate compared with R-CHOP or an inhibitor alone; also recorded: all treated mice survived until the end of the experiment at day 120 | tumor growth (total photon flux) ([7]; regimen or inhibitor used alone, vs saline, day 50 and 90): neither duvelisib nor abemaciclib alone inhibited tumor growth or prolonged the survival rate; also recorded: accelerated tumor growth compared with normal saline, although this difference was not statistically significant | tumor growth (total photon flux) ([8]; inhibitor combined with R-CHOP, dosing per Table 1): completely inhibit tumor growth | survival time [8, 9]: prolong the survival time to the end of the experiment at day 120 | survival time [8, 10]: had no efficacy on tumor growth and the survival time | tumor growth (total photon flux) [8, 10]: had no efficacy on tumor growth and the survival time
